Measurements reported in PubChem BioAssay AID1963833 (Molecular Pharmacology Branch, DTP, NCI, 2024).

Test system: 883617-216-R-J1-PDC complex spheroid viability
Assay: Anticancer human tumor 883617-216-R-J1-PDC patient-derived bladder carcinoma cell line growth inhibition [POLQ]
Details: for IC50: curve of first compound; for viability, T/C: stronger effect = lower value
In short: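 PDC + HUVEC + MSC complex spheroids; POLQ inhibitors ± partner drugs; top conc. at/near clinical Cmax, else 10 microM (SN-38 1 microM), half-log dilutions; 37 degrees C, 5% CO2.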

[1] = second compound 0.0316 µM, first compound 0.0316 µM
[2] = second compound 0.0316 µM, first compound 0.1 µM
[3] = second compound 0.0316 µM, first compound 0.316 µM
[4] = second compound 0.0316 µM, first compound 1 µM
[5] = second compound 0.0316 µM, first compound 3.16 µM
[6] = second compound 0.0316 µM, first compound 10 µM
[7] = second compound 0.1 µM, first compound 0.0316 µM
[8] = second compound 0.1 µM, first compound 0.1 µM
[9] = second compound 0.1 µM, first compound 0.316 µM
[10] = second compound 0.1 µM, first compound 1 µM
[11] = second compound 0.1 µM, first compound 3.16 µM
[12] = second compound 0.1 µM, first compound 10 µM
[13] = second compound 0.316 µM, first compound 0.0316 µM
[14] = second compound 0.316 µM, first compound 0.1 µM
[15] = second compound 0.316 µM, first compound 0.316 µM
[16] = second compound 0.316 µM, first compound 1 µM
[17] = second compound 0.316 µM, first compound 3.16 µM
[18] = second compound 0.316 µM, first compound 10 µM
[19] = second compound 1 µM, first compound 0.0316 µM
[20] = second compound 1 µM, first compound 0.1 µM
[21] = second compound 1 µM, first compound 0.316 µM
[22] = second compound 1 µM, first compound 1 µM
[23] = second compound 1 µM, first compound 3.16 µM
[24] = second compound 1 µM, first compound 10 µM
[25] = second compound 3.16 µM, first compound 0.0316 µM
[26] = second compound 3.16 µM, first compound 0.1 µM
[27] = second compound 3.16 µM, first compound 0.316 µM
[28] = second compound 3.16 µM, first compound 1 µM
[29] = second compound 3.16 µM, first compound 3.16 µM
[30] = second compound 3.16 µM, first compound 10 µM
[31] = second compound 10 µM, first compound 0.0316 µM
[32] = second compound 10 µM, first compound 0.1 µM
[33] = second compound 10 µM, first compound 0.316 µM
[34] = second compound 10 µM, first compound 1 µM
[35] = second compound 10 µM, first compound 3.16 µM
[36] = second compound 10 µM, first compound 10 µM
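Further: spheroids exposed to compounds for seven days before readout.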
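Wherever viability, T/C is given: 100% = DMSO vehicle control viability.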

Structure (SMILES): C=CC(=O)N1CCN(c2nc(=O)n(-c3c(C)ccnc3C(C)C)c3nc(-c4c(O)cccc4F)c(F)cc23)C(C)C1 (stereo not drawn) + Cc1cccc(N(C)C(=O)C2C(O)CCN2c2nc(C)cc(C(F)(F)F)c2C#N)c1
- IC50 (second compound 0.0316 µM): > 10 µM
- IC50 (second compound 0.1 µM): > 10 µM
- IC50 (second compound 0.316 µM): > 10 µM
- IC50 (second compound 1 µM): > 10 µM
- IC50 (second compound 3.16 µM): > 10 µM
- IC50 (second compound 10 µM): > 10 µM
- viability, T/C [1]: 72.4%
- viability, T/C [2]: 66.9%
- viability, T/C [3]: 75.6%
- viability, T/C [4]: 84.9%
- viability, T/C [5]: 84.2%
- viability, T/C [6]: 73.4%
- viability, T/C [7]: 74.2%
- viability, T/C [8]: 79.3%
- viability, T/C [9]: 75.6%
- viability, T/C [10]: 80.8%
- viability, T/C [11]: 79.2%
- viability, T/C [12]: 81.3%
- viability, T/C [13]: 80.2%
- viability, T/C [14]: 62%
- viability, T/C [15]: 72%
- viability, T/C [16]: 82.8%
- viability, T/C [17]: 85.1%
- viability, T/C [18]: 87.2%
- viability, T/C [19]: 71.4%
- viability, T/C [20]: 66.2%
- viability, T/C [21]: 67.3%
- viability, T/C [22]: 83.2%
- viability, T/C [23]: 90.6%
- viability, T/C [24]: 79.9%
- viability, T/C [25]: 65%
- viability, T/C [26]: 59.8%
- viability, T/C [27]: 68.6%
- viability, T/C [28]: 76.1%
- viability, T/C [29]: 100%
- viability, T/C [30]: 78.3%
- viability, T/C [31]: 78.3%
- viability, T/C [32]: 77.3%
- viability, T/C [33]: 84%
- viability, T/C [34]: 86.6%
- viability, T/C [35]: 101%
- viability, T/C [36]: 82.7%

Structure (SMILES): CC(C)n1c(=O)n(C)c2cnc3cc(F)c(-c4ccc(OCCCN5CCCCC5)nc4)cc3c21 + Cc1cccc(N(C)C(=O)C2C(O)CCN2c2nc(C)cc(C(F)(F)F)c2C#N)c1
- IC50 (second compound 0.0316 µM): > 10 µM
- IC50 (second compound 0.1 µM): > 10 µM
- IC50 (second compound 0.316 µM): > 10 µM
- IC50 (second compound 1 µM): > 10 µM
- IC50 (second compound 3.16 µM): > 10 µM
- IC50 (second compound 10 µM): > 10 µM
- viability, T/C [1]: 105%
- viability, T/C [2]: 96.2%
- viability, T/C [3]: 108%
- viability, T/C [4]: 90%
- viability, T/C [5]: 83.9%
- viability, T/C [6]: 59.9%
- viability, T/C [7]: 108%
- viability, T/C [8]: 111%
- viability, T/C [9]: 105%
- viability, T/C [10]: 98.7%
- viability, T/C [11]: 91.5%
- viability, T/C [12]: 62%
- viability, T/C [13]: 107%
- viability, T/C [14]: 93.6%
- viability, T/C [15]: 97.2%
- viability, T/C [16]: 110%
- viability, T/C [17]: 92.8%
- viability, T/C [18]: 59%
- viability, T/C [19]: 95.9%
- viability, T/C [20]: 108%
- viability, T/C [21]: 96.1%
- viability, T/C [22]: 98.7%
- viability, T/C [23]: 96.6%
- viability, T/C [24]: 59.5%
- viability, T/C [25]: 100%
- viability, T/C [26]: 107%
- viability, T/C [27]: 105%
- viability, T/C [28]: 108%
- viability, T/C [29]: 95.6%
- viability, T/C [30]: 65.3%
- viability, T/C [31]: 108%
- viability, T/C [32]: 112%
- viability, T/C [33]: 114%
- viability, T/C [34]: 98.3%
- viability, T/C [35]: 105%
- viability, T/C [36]: 63.4%

Structure (SMILES): CC1COCCN1c1cc(-c2ccnn2C)c2ccnc(-c3ccn[nH]3)c2n1 (stereo not drawn) + Cc1cccc(N(C)C(=O)C2C(O)CCN2c2nc(C)cc(C(F)(F)F)c2C#N)c1
- IC50 (second compound 0.0316 µM): 0.205 µM
- IC50 (second compound 0.1 µM): 0.291 µM
- IC50 (second compound 0.316 µM): 0.273 µM
- IC50 (second compound 1 µM): 0.257 µM
- IC50 (second compound 3.16 µM): 0.204 µM
- IC50 (second compound 10 µM): 0.334 µM
- viability, T/C [1]: 89.1%
- viability, T/C [2]: 61.4%
- viability, T/C [3]: 43.2%
- viability, T/C [4]: 34%
- viability, T/C [5]: 31.7%
- viability, T/C [6]: 29.4%
- viability, T/C [7]: 72.7%
- viability, T/C [8]: 59.1%
- viability, T/C [9]: 53.2%
- viability, T/C [10]: 35.7%
- viability, T/C [11]: 29.9%
- viability, T/C [12]: 34.7%
- viability, T/C [13]: 83.6%
- viability, T/C [14]: 63.1%
- viability, T/C [15]: 48%
- viability, T/C [16]: 39.3%
- viability, T/C [17]: 32.9%
- viability, T/C [18]: 30.9%
- viability, T/C [19]: 83.2%
- viability, T/C [20]: 66.1%
- viability, T/C [21]: 48.1%
- viability, T/C [22]: 32.1%
- viability, T/C [23]: 32.6%
- viability, T/C [24]: 30.3%
- viability, T/C [25]: 72%
- viability, T/C [26]: 60.6%
- viability, T/C [27]: 43.9%
- viability, T/C [28]: 32.9%
- viability, T/C [29]: 33%
- viability, T/C [30]: 30.7%
- viability, T/C [31]: 96.7%
- viability, T/C [32]: 60%
- viability, T/C [33]: 58.1%
- viability, T/C [34]: 37.9%
- viability, T/C [35]: 38.9%
- viability, T/C [36]: 28.2%

Structure (SMILES): CC1COCCN1c1cc(C2(S(C)(=N)=O)CC2)nc(-c2ccnc3[nH]ccc23)n1 (stereo not drawn) + Cc1cccc(N(C)C(=O)C2C(O)CCN2c2nc(C)cc(C(F)(F)F)c2C#N)c1
- IC50 (second compound 0.0316 µM): 3.3 µM
- IC50 (second compound 0.1 µM): 2.86 µM
- IC50 (second compound 0.316 µM): 2.75 µM
- IC50 (second compound 1 µM): 2.76 µM
- IC50 (second compound 3.16 µM): 2.87 µM
- IC50 (second compound 10 µM): 6 µM
- viability, T/C [1]: 97.7%
- viability, T/C [2]: 91.2%
- viability, T/C [3]: 92.8%
- viability, T/C [4]: 77.5%
- viability, T/C [5]: 50.9%
- viability, T/C [6]: 30.8%
- viability, T/C [7]: 102%
- viability, T/C [8]: 89.9%
- viability, T/C [9]: 87.7%
- viability, T/C [10]: 65.2%
- viability, T/C [11]: 48.6%
- viability, T/C [12]: 36.1%
- viability, T/C [13]: 88.2%
- viability, T/C [14]: 96.4%
- viability, T/C [15]: 94.7%
- viability, T/C [16]: 77.8%
- viability, T/C [17]: 46.6%
- viability, T/C [18]: 38.6%
- viability, T/C [19]: 108%
- viability, T/C [20]: 93.5%
- viability, T/C [21]: 84.3%
- viability, T/C [22]: 68.4%
- viability, T/C [23]: 43.9%
- viability, T/C [24]: 37.2%
- viability, T/C [25]: 105%
- viability, T/C [26]: 94.1%
- viability, T/C [27]: 93.1%
- viability, T/C [28]: 65.8%
- viability, T/C [29]: 50%
- viability, T/C [30]: 38%
- viability, T/C [31]: 119%
- viability, T/C [32]: 91.4%
- viability, T/C [33]: 112%
- viability, T/C [34]: 74.4%
- viability, T/C [35]: 67.6%
- viability, T/C [36]: 37.8%
